Molecules are shown by their SMILES.

Assay [1] addresses T1, mouse heart beta1 receptors (Mus musculus, UniProt P34971).
T1 construct: beta1 heart receptors; from tissue; host or cells: mouse heart
Briefly: beta-blocking activity: binding test towards beta1 heart receptors in mouse. An excerpt:
(§1) Moreover the beta-blocking activity has been tested with i binding tests both towards beta1 heart receptors and beta2 lung receptors in mouse according to methods described in J. Biol. Chem., 253, 5090, (1978) and Br. J. Pharmacol., 68, 57, (1980).

Another assay has as its system rabbit mesenteric artery. Briefly: Calcium antagonist activity: antagonizing the effect of Ca++ on preparations of rabbit mesenteric artery in Krebs depolarizer. The format is cell-based. Particulars: Oryctolagus cuniculus, Ca++ submaximal concentration 3 mM. The protocol: Calcium antagonist activity of the compounds of formula I has been tested as capability of antagonizing the effect of Ca^++ submaximal concentrations (3 mM) on preparations of rabbit mesenteric artery in Krebs depolarizer, prepared according to Towart "J. Cardiovasc. Pharmacol." 4, 895, (1982).

In assay [2] the target is T2, mouse lung beta2 receptors (Mus musculus, UniProt P18762).
T2 construct: beta2 lung receptors in mouse; from tissue; host or cells: mouse lung
Briefly: beta-blocking activity: binding test towards beta2 lung receptors in mouse.
Source text: as §1

T2 sequence (P18762 whole entry): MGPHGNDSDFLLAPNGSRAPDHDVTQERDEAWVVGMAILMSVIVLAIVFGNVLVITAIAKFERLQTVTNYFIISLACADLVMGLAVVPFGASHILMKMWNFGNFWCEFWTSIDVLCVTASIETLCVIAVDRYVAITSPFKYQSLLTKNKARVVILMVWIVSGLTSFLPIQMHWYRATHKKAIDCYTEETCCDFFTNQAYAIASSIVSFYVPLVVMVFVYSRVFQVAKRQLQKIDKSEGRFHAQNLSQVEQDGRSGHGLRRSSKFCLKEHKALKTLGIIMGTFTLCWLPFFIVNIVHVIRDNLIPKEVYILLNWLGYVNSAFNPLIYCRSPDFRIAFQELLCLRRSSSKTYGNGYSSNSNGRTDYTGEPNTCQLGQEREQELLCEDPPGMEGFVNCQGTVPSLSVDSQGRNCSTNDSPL
T1 sequence (P34971 whole entry): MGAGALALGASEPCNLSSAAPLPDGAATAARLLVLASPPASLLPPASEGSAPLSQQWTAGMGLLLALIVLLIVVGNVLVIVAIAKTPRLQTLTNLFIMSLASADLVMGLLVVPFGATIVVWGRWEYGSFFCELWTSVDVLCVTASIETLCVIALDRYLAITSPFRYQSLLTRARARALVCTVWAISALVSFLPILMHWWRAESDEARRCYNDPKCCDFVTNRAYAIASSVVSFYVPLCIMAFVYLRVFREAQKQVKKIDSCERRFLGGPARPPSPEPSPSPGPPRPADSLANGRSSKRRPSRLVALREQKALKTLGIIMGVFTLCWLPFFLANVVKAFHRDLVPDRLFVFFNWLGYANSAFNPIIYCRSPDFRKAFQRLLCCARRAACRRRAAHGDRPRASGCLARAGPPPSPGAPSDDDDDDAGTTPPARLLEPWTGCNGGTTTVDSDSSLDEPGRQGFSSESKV

On to `CCOC(=O)C1=C(C)Nc2cnn(CCNCC(O)COc3ccccc3OC)c(=O)c2C1c1cccc([N+](=O)[O-])c1` (stereo not drawn) [Compound A, Ethyl 2-methyl-4-(3-nitrophenyl)-5-oxo-6-(2-(2-hydroxy-3-(2-methoxyphenoxy)-propylamino)-ethyl)-1,4,5,6-tetrahydro-pyrido(2,3-d)pyridaxine-3-carboxylate], for which the results for the Ki in assay [1] and in assay [2] were 345 nM and 287 nM, respectively. Also, the half-inhibitory concentration (IC50) (in general, the concentration needed to halve the response being measured) with rabbit mesenteric artery was found to be 240 nM.

Consider `CCOC(=O)C1=C(C)Nc2cnn(CC(C)(C)NCC(O)COc3ccccc3OC)c(=O)c2C1c1cccc([N+](=O)[O-])c1` (stereo not drawn) [Compound B], for which the results for the Ki in assay [1] and in assay [2] were 142 nM and 71 nM, respectively. For the same molecule, the IC50 in the assay with rabbit mesenteric artery was 770 nM.
